This note sets out measurements from patent US7700613B2, “Use of 7-t-butoxyiminomethylcamptothecin for the preparation of a medicament for the treatment of uterine neoplasms” (Sigma-Tau Farmaceutiche Riunite, S.p.A., priority 2004, dated 2010).

In test [1] the test system is uterine cancers, both of the cervix and the endometrium. Kind of test: European phase I trial of gimatecan as single therapeutic agent in patients with advanced cancers. It counts as in vivo. As for the experimental part: In the light of this preclinical evidence, a European phase I trial was conducted in which gimatecan was administered as a single therapeutic agent with different administration regimens. The patients studied were affected by advanced cancers for which curative or standard therapy was no longer indicated. Although the aim of the study was to assess the tolerability of the treatment with gimatecan, in the course of this clinical trial gimatecan produced a number of lasting objective clinical responses. Particularly worthy of mention are the responses of a number of patients with uterine cancers, both of the cervix and the endometrium, including forms which had received substantial previous treatments and presented metastatic disease.
These responses were subjected to two independent assessments by experts not taking part in the clinical trial, who confirmed the observations.

The nature of test [2]: preclinical trials in vivo. From the text: Gimatecan is a new anticancer compound that has shown a high therapeutic index in preclinical trials in vivo. Moreover, gimatecan is characterised by an anticancer activity that is maintained with different administration regimens, both intermittent and prolonged.

Regarding `CC[C@@]1(O)C(=O)OCc2c1cc1n(c2=O)Cc2c-1nc1ccccc1c2/C=N/OC(C)(C)C` [gimatecan, 7-terbutoxyiminomethylcamptothecin], the objective clinical response entry in test [1] (patients with uterine cancers (cervix and endometrium), incl. substantially pretreated and metastatic disease, assessed by computed tomography, confirmed by two independent assessments) was “partial responses”. For the same compound, the “reduction of the tumour lesion or lesions” value in test [1] (responding patients with uterine cancers, diagnostic imaging such as computed tomography, definition of partial response) was “more than 30%”. Besides, in test [2], the therapeutic index entry is recorded as “high”.
